Measured values published in patent US8952024B2, “Herbicidal pyrimidone derivatives” (E I du Pont de Nemours and Company, priority 2009, dated 2015).

Tests used:
Assay type in all cases: in vivo
[1] = system: chickweed (Stellaria media); test: Test B postemergence plant response; conditions: for Chickweed plant response rating (0 to 100 scale): 62 g ai/ha, 0 is no effect, 13 to 15 days
Outline: (§1)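 Visual ratings from 0 (no effect) to 100 (complete control), made against controls 13–15 days after treatment, kept in a greenhouse. Compounds were applied postemergence to potted plants at the 1- to 4-leaf stage (2–18 cm).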

[2] = system: windgrass (Apera spica-venti); test: Test B postemergence plant response; conditions: for Windgrass plant response rating (0 to 100 scale): 62 g ai/ha, postemergence, 0 is no effect, 100 is complete control, 13 to 15 days; for Plant response rating, Windgrass: Postemergence, 125 g ai/ha, scale 0 to 100 (0 no effect, 100 complete control)
Outline: as §1

[3] = system: winter barley (Hordeum vulgare); test: Test B postemergence plant response; conditions: for Barley plant response rating (0 to 100 scale): 62 g ai/ha, 0 is no effect, 13 to 15 days
Outline: as §1

[4] = system: canarygrass (Phalaris minor); test: Test B postemergence plant response; conditions: for Canarygrass plant response rating (0 to 100 scale): 62 g ai/ha, 0 is no effect, 13 to 15 days
Outline: as §1

[5] = system: blackgrass (Alopecurus myosuroides); test: Test B pre-/postemergence plant response; conditions: for Blackgrass plant response rating (0 to 100 scale): 0 is no effect, 13 to 15 days
Outline: (§2)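 Visual ratings on a 0–100 scale (100 = complete control) were made versus untreated controls 13–15 days after treatment in a greenhouse. Compounds in surfactant-containing non-phytotoxic solvent were applied preemergence to seeds in loam–sand blend or postemergence to 1- to 4-leaf plants (2–18 cm).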

kochia (Kochia scoparia) = test: Test B pre-/postemergence plant response; conditions: for Kochia plant response rating (0 to 100 scale): 0 is no effect, 13 to 15 days
Outline: as §2

[6] = system: bermudagrass (Cynodon dactylon); test: Test B pre-/postemergence plant response; conditions: for Bermudagrass plant response rating (0 to 100 scale): 0 is no effect, 13 to 15 days
Outline: as §2

soybean (Glycine max) = test: Test B pre-/postemergence plant response; conditions: for Soybean plant response rating (0 to 100 scale): postemergence, 0 is no effect, 100 is complete control, 13 to 15 days
Outline: as §2

wild oat (Avena fatua) = test: Test B pre-/postemergence plant response; conditions: for Oat, Wild plant response rating (0 to 100 scale): 0 is no effect, 13 to 15 days
Outline: as §2

[7] = system: johnsongrass (Sorghum halepense); test: Test B pre-/postemergence plant response; conditions: for Johnsongrass plant response rating (0 to 100 scale): 0 is no effect, 13 to 15 days
Outline: as §2

[8] = system: morningglory (Ipomoea coccinea); test: Test B pre-/postemergence plant response; conditions: for Morningglory plant response rating (0 to 100 scale): 0 is no effect, 13 to 15 days
Outline: as §2

[9] = system: giant foxtail (Setaria faberii); test: Test B pre-/postemergence plant response; conditions: for Foxtail, Giant plant response rating (0 to 100 scale): 0 is no effect, 13 to 15 days
Outline: as §2

corn (Zea mays) = test: Test B pre-/postemergence plant response; conditions: for Corn plant response rating (0 to 100 scale): 0 is no effect, 13 to 15 days
Outline: as §2

[10] = system: cocklebur (Xanthium strumarium); test: Test B pre-/postemergence plant response; conditions: for Cocklebur plant response rating (0 to 100 scale): 62 g ai/ha, 0 is no effect, 13 to 15 days
Outline: as §2

[11] = 31 g ai/ha, postemergence, scale 0 to 100, 0 is no effect, 100 is complete control
[12] = postemergence, 100 is complete control
[13] = Postemergence, 125 g ai/ha, scale 0 to 100 (0 no effect, 100 complete control)
[14] = Postemergence, 250 g ai/ha, scale 0 to 100 (0 no effect, 100 complete control)
[15] = 62 g ai/ha, postemergence, 100 is complete control
[16] = Preemergence, 31 g ai/ha, scale 0 to 100 (0 no effect, 100 complete control)
[17] = Preemergence, 62 g ai/ha, scale 0 to 100 (0 no effect, 100 complete control)
[18] = Preemergence, 125 g ai/ha, scale 0 to 100, 0 no effect, 100 complete control
[19] = Preemergence, 250 g ai/ha, 0 to 100 scale

COCCCn1c(-c2cccc(C)c2)ncc(C(=O)C2=C(O)CCCC2=O)c1=O [Compound 118, 5-[(2-hydroxy-6-oxo-1-cyclohexane-1-yl)carbonyl]-3-(3-methoxypropyl)-2-(3-methylphenyl)-4(3H)-pyrimidinone]
Plant response rating, Chickweed [1, 11]: 90 | Chickweed plant response rating (0 to 100 scale) [1, 12]: 95 | Plant response rating, Chickweed [1, 13]: 95 | Plant response rating, Chickweed [1, 14]: 100 | Windgrass plant response rating (0 to 100 scale) [2]: 60 | Plant response rating, Windgrass [2]: 70 | Plant response rating, Barley [3, 11]: 0 | Barley plant response rating (0 to 100 scale) [3, 12]: 0 | Plant response rating, Barley [3, 13]: 0 | Plant response rating, Barley [3, 14]: 0 | Plant response rating, Canarygrass [4, 11]: 0 | Canarygrass plant response rating (0 to 100 scale) [4, 12]: 0 | Plant response rating, Canarygrass [4, 13]: 10 | Plant response rating, Canarygrass [4, 14]: 15 | Plant response rating, Blackgrass [5, 11]: 5 | Blackgrass plant response rating (0 to 100 scale) [5, 15]: 10 | Plant response rating, Blackgrass [5, 13]: 35 | Plant response rating, Blackgrass [5, 14]: 40 | Plant response rating, Kochia (kochia (Kochia scoparia); [11]): 45 | Kochia plant response rating (0 to 100 scale) (kochia (Kochia scoparia); [15]): 65 | Plant response rating, Kochia (kochia (Kochia scoparia); [13]): 70 | Plant response rating, Kochia (kochia (Kochia scoparia); [14]): 98 | Plant response rating, Bermudagrass [6, 11]: 75 | Bermudagrass plant response rating (0 to 100 scale) [6, 15]: 95 | Plant response rating, Bermudagrass [6, 13]: 98 | Plant response rating, Bermudagrass [6, 14]: 98 | Soybean plant response rating (0 to 100 scale) (soybean (Glycine max); 62 g ai/ha): 90 | Plant response rating, Soybean (soybean (Glycine max); [13]): 95 | Plant response rating, Soybean (soybean (Glycine max); [14]): 100 | Plant response rating, Oat, Wild (wild oat (Avena fatua); [11]): 5 | Oat, Wild plant response rating (0 to 100 scale) (wild oat (Avena fatua); [15]): 5 | Plant response rating, Oat, Wild (wild oat (Avena fatua); [13]): 10 | Plant response rating, Oat, Wild (wild oat (Avena fatua); [14]): 40 | Plant response rating, Johnsongrass [7, 11]: 10 | Johnsongrass plant response rating (0 to 100 scale) [7, 15]: 10 | Plant response rating, Johnsongrass [7, 13]: 20 | Plant response rating, Johnsongrass [7, 14]: 35 | Plant response rating, Morningglory [8, 11]: 10 | Morningglory plant response rating (0 to 100 scale) [8, 15]: 60 | Plant response rating, Morningglory [8, 13]: 70 | Plant response rating, Morningglory [8, 14]: 80 | Plant response rating, Foxtail, Giant [9, 11]: 75 | Foxtail, Giant plant response rating (0 to 100 scale) [9, 15]: 80 | Plant response rating, Foxtail, Giant [9, 13]: 85 | Plant response rating, Foxtail, Giant [9, 14]: 95 | Plant response rating, Corn (corn (Zea mays); [11]): 0 | Corn plant response rating (0 to 100 scale) (corn (Zea mays); [15]): 0 | Plant response rating, Corn (corn (Zea mays); [13]): 20 | Plant response rating, Corn (corn (Zea mays); [14]): 25 | Plant response rating, Cocklebur [10, 11]: 40 | Cocklebur plant response rating (0 to 100 scale) [10, 12]: 40 | Plant response rating, Cocklebur [10, 13]: 85 | Plant response rating, Cocklebur [10, 14]: 98

COCCn1c(-c2cc(F)cc(F)c2)ncc(C(=O)C2=C(O)CCCC2=O)c1=O [Compound 119]
Plant response rating, Chickweed [1, 11]: 70 | Chickweed plant response rating (0 to 100 scale) [1, 12]: 80 | Plant response rating, Chickweed [1, 13]: 100 | Plant response rating, Chickweed [1, 14]: 100 | Windgrass plant response rating (0 to 100 scale) [2]: 85 | Plant response rating, Windgrass [2]: 100 | Plant response rating, Barley [3, 11]: 0 | Barley plant response rating (0 to 100 scale) [3, 12]: 0 | Plant response rating, Barley [3, 13]: 5 | Plant response rating, Barley [3, 14]: 5 | Plant response rating, Canarygrass [4, 11]: 5 | Canarygrass plant response rating (0 to 100 scale) [4, 12]: 5 | Plant response rating, Canarygrass [4, 13]: 30 | Plant response rating, Canarygrass [4, 14]: 30 | Plant response rating, Blackgrass [5, 11]: 5 | Blackgrass plant response rating (0 to 100 scale) [5, 15]: 20 | Plant response rating, Blackgrass [5, 13]: 50 | Plant response rating, Blackgrass [5, 14]: 50 | Plant response rating, Blackgrass [5, 16]: 30 | Plant response rating, Blackgrass [5, 17]: 30 | Plant response rating, Blackgrass [5, 18]: 50 | Blackgrass plant response rating [5, 19]: 70 | Plant response rating, Kochia (kochia (Kochia scoparia); [11]): 40 | Kochia plant response rating (0 to 100 scale) (kochia (Kochia scoparia); [15]): 75 | Plant response rating, Kochia (kochia (Kochia scoparia); [13]): 95 | Plant response rating, Kochia (kochia (Kochia scoparia); [14]): 100 | Plant response rating, Kochia (kochia (Kochia scoparia); [16]): 0 | Plant response rating, Kochia (kochia (Kochia scoparia); [17]): 0 | Plant response rating, Kochia (kochia (Kochia scoparia); [18]): 55 | Kochia plant response rating (kochia (Kochia scoparia); [19]): 98 | Plant response rating, Bermudagrass [6, 11]: 75 | Bermudagrass plant response rating (0 to 100 scale) [6, 15]: 98 | Plant response rating, Bermudagrass [6, 13]: 98 | Plant response rating, Bermudagrass [6, 14]: 98 | Plant response rating, Bermudagrass [6, 16]: 100 | Plant response rating, Bermudagrass [6, 17]: 100 | Plant response rating, Bermudagrass [6, 18]: 100 | Bermudagrass plant response rating ([6]; Preemergence, 250 g ai/ha, 0 to 100 scale, 0 no effect, 100 complete control): 100 | Soybean plant response rating (0 to 100 scale) (soybean (Glycine max); 62 g ai/ha): 50 | Plant response rating, Soybean (soybean (Glycine max); [13]): 60 | Plant response rating, Soybean (soybean (Glycine max); [14]): 80 | Plant response rating, Soybean (soybean (Glycine max); [16]): 10 | Plant response rating, Soybean (soybean (Glycine max); [17]): 55 | Plant response rating, Soybean (soybean (Glycine max); [18]): 80 | Soybean plant response rating (soybean (Glycine max); [19]): 80 | Plant response rating, Oat, Wild (wild oat (Avena fatua); [11]): 50 | Oat, Wild plant response rating (0 to 100 scale) (wild oat (Avena fatua); [15]): 60 | Plant response rating, Oat, Wild (wild oat (Avena fatua); [13]): 95 | Plant response rating, Oat, Wild (wild oat (Avena fatua); [14]): 95 | Plant response rating, Oat, Wild (wild oat (Avena fatua); [16]): 0 | Plant response rating, Oat, Wild (wild oat (Avena fatua); [17]): 45 | Plant response rating, Oat, Wild (wild oat (Avena fatua); [18]): 50 | Oat, Wild plant response rating (wild oat (Avena fatua); [19]): 80 | Plant response rating, Johnsongrass [7, 11]: 10 | Johnsongrass plant response rating (0 to 100 scale) [7, 15]: 40 | Plant response rating, Johnsongrass [7, 13]: 75 | Plant response rating, Johnsongrass [7, 14]: 80 | Plant response rating, Johnsongrass [7, 16]: 50 | Plant response rating, Johnsongrass [7, 17]: 85 | Plant response rating, Johnsongrass [7, 18]: 95 | Johnsongrass plant response rating [7, 19]: 95 | Plant response rating, Morningglory [8, 11]: 10 | Morningglory plant response rating (0 to 100 scale) [8, 15]: 60 | Plant response rating, Morningglory [8, 13]: 95 | Plant response rating, Morningglory [8, 14]: 95 | Plant response rating, Morningglory [8, 16]: 60 | Plant response rating, Morningglory [8, 17]: 95 | Plant response rating, Morningglory [8, 18]: 95 | Morningglory plant response rating [8, 19]: 95 | Plant response rating, Foxtail, Giant [9, 11]: 75 | Foxtail, Giant plant response rating (0 to 100 scale) [9, 15]: 85 | Plant response rating, Foxtail, Giant [9, 13]: 95 | Plant response rating, Foxtail, Giant [9, 14]: 95 | Plant response rating, Foxtail, Giant [9, 16]: 55 | Plant response rating, Foxtail, Giant [9, 17]: 85 | Plant response rating, Foxtail, Giant [9, 18]: 95 | Foxtail, Giant plant response rating [9, 19]: 100 | Plant response rating, Corn (corn (Zea mays); [11]): 20 | Corn plant response rating (0 to 100 scale) (corn (Zea mays); [15]): 45 | Plant response rating, Corn (corn (Zea mays); [13]): 60 | Plant response rating, Corn (corn (Zea mays); [14]): 70 | Plant response rating, Corn (corn (Zea mays); [16]): 0 | Plant response rating, Corn (corn (Zea mays); [17]): 40 | Plant response rating, Corn (corn (Zea mays); [18]): 50 | Corn plant response rating (corn (Zea mays); [19]): 50 | Plant response rating, Cocklebur [10, 11]: 0 | Cocklebur plant response rating (0 to 100 scale) [10, 12]: 10 | Plant response rating, Cocklebur [10, 13]: 80 | Plant response rating, Cocklebur [10, 14]: 95 | Plant response rating, Cocklebur [10, 16]: 0 | Plant response rating, Cocklebur [10, 18]: 70 | Cocklebur plant response rating [10, 19]: 85
